Results on 27 molecules are retold here after patent US10844062B2, “Pyridine derivative inhibiting RAF kinase and vascular endothelial growth factor receptor, method for preparing same, pharmaceutical composition containing same, and use thereof” (SAMJIN PHARMACEUTICAL CO., LTD., priority 2016, dated 2020).

The first test concerns LS513 human colorectal cancer cell line xenograft. Put plainly: Antitumor effect on human colorectal cancer LS513 cell line xenograft. In kind it is in vivo, Balb/c nu/nu nude mice. The following applies: oral, twice a day, 60 mg/kg or 30 mg/kg (dose not specified per compound), 14 days. An excerpt: In this experiment, 5 to 6-week-old female Balb/c nu/nu nude mice (weighed 18 to 20 g) were used. The mice were provided from Nara Biotech Co., Ltd. During the experiment, all the animals were housed on a mouse constant temperature/constant humidity shelf (Individually Ventilated Cages System, LAB & BIO).
Each cage (37.2 cm length×19.2 cm width×13.1 cm height) was sterilized with a sterilizer, and eight mice were received in each cage. The mice were maintained in a hygienic environment controlled to a temperature of 20 to 24° C. and a humidity of 40 to 70% with a 12-hr light/12-hr dark cycle. The mice were allowed to access sterilized feed and drinking water ad libitum. The care and treatment of these animals were carried out according to the Laboratory Animal Care Guidelines of Samjin Pharmaceutical Co., Ltd.
The mice were acclimated to the housing facility for 1 week, and then 0.1 mL of a cell suspension containing 1×10^7 cells was injected subcutaneously into the right flank of each mouse. After cell transplantation, the volume of the formed tumor was measured, and mice with formed tumors having a volume of 150 mm^3 or more were randomly divided into groups (each consisting of 7 to 8 animals) for treatment with the test compounds and a control. […] Administration of the drugs was continued for 14 days. […] At 3-day intervals from the starting day of the administration, the long axis and short axis of the tumor were measured with digital vernier calipers, and the tumor volume was calculated using the following equation and recorded: Tumor volume (TV)=Long axis×short axis^2/2.
Tumor growth inhibition for absolute tumor volume was calculated using the following equation. In the following equation, V0 is the tumor volume on the first day of drug administration (day 0), and Vt is the tumor volume after last drug administration.
On to `Cc1cn(-c2cc(NC(=O)Nc3ccc(F)c(Nc4ncccc4-c4ncnc5[nH]cnc45)c3F)cc(C(F)(F)F)c2)cn1` [Example 59, 1-(3-(3-(9H-Purin-6-Yl)Pyridin-2-Ylamino)-2,4-Difluorophenyl)-3-(3-(4-Methyl-1H-Imidazol-1-Yl)-5-(Trifluoromethyl)Phenyl)Urea], for which the “antitumor effect (tumor growth inhibition) compared to the vehicle control” value stood at 83.51%.

On to `CCN1CCN(Cc2ccc(NC(=O)Nc3ccc(F)c(Nc4ncccc4-c4ncnc5[nH]cnc45)c3F)cc2C(F)(F)F)CC1` [Example 60, 1-(3-(3-(9H-Purin-6-Yl)Pyridin-2-Ylamino)-2,4-Difluorophenyl)-3-(4-((4-Ethylpiperazin-1-Yl)Methyl)-3-(Trifluoromethyl)Phenyl)Urea], for which the “antitumor effect (tumor growth inhibition) compared to the vehicle control” value came out at 69.06%.

In the case of `COc1cc(C(=O)Nc2cc(Nc3ncccc3-c3ncnc4[nH]cnc34)ccc2F)cc(C(F)(F)F)c1` [Example 63, N-2-Fluoro-5-[3-(9H-Purin-6-Yl)Pyridin-2-Ylamino)Phenyl-3-Methoxy-5-(Trifluoromethyl)Benzamide], the “antitumor effect (tumor growth inhibition) compared to the vehicle control” value is given as 57.9%.

Another test deals with LS513 KRAS G12V (colon). As to the kind of experiment: MTT assay. The class given is cell-based. The conditions noted are these: Homo sapiens, LS-513, 72 h, Table 4; 3 days incubation; read-out: MTT assay IC50 KRAS mutant (Colon) LS513 KRAS G12V. In outline: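 Cells were seeded at line-dependent density and stabilised overnight at 37 °C, then exposed to compounds for 3 days at 37 °C. MTT was then added for 2 h and the formazan dissolved in DMSO.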
As to `Cc1cn(-c2cc(NC(=O)Nc3ccc(F)c(Nc4ncccc4-c4ncnc5[nH]cnc45)c3F)cc(C(F)(F)F)c2)cn1` [Example 59, 1-(3-(3-(9H-Purin-6-Yl)Pyridin-2-Ylamino)-2,4-Difluorophenyl)-3-(3-(4-Methyl-1H-Imidazol-1-Yl)-5-(Trifluoromethyl)Phenyl)Urea], the IC50 turned out to be 2.14 µM.

Consider `CCN1CCN(Cc2ccc(NC(=O)Nc3ccc(F)c(Nc4ncccc4-c4ncnc5[nH]cnc45)c3F)cc2C(F)(F)F)CC1` [Example 60, 1-(3-(3-(9H-Purin-6-Yl)Pyridin-2-Ylamino)-2,4-Difluorophenyl)-3-(4-((4-Ethylpiperazin-1-Yl)Methyl)-3-(Trifluoromethyl)Phenyl)Urea], for which the IC50 was more than 10 µM.

Take `COc1cc(C(=O)Nc2cc(Nc3ncccc3-c3ncnc4[nH]cnc34)ccc2F)cc(C(F)(F)F)c1` [Example 63, N-2-Fluoro-5-[3-(9H-Purin-6-Yl)Pyridin-2-Ylamino)Phenyl-3-Methoxy-5-(Trifluoromethyl)Benzamide]: the IC50 was determined as 0.69 µM.

With `COc1cc(OC)cc(C(=O)Nc2cc(Nc3ncccc3-c3ncnc4[nH]cnc34)ccc2F)c1` [Example 132, N-5-[(3-(9H-purin-6-yl)pyridin-2-yl)amino]-2-fluorophenyl-3,5-dimethoxybenzamide], the IC50 came out at 0.585 µM.

For `O=C(Nc1cc(Nc2ncccc2-c2ncnc3[nH]cnc23)ccc1F)c1ccc(C(F)(F)F)c(F)c1` [Example 133, N-5-[(3-(9H-purin-6-yl)pyridin-2-yl)amino]-2-fluorophenyl-3-fluoro-4-(trifluoromethyl)benzamide], the IC50 is 5.6 µM.

For the molecule `COc1ccc(C(=O)Nc2cc(Nc3ncccc3-c3ncnc4[nH]cnc34)ccc2F)cc1C(F)(F)F` [Example 134, N-5-[(3-(9H-purin-6-yl)pyridin-2-yl)amino]-2-fluorophenyl-4-methoxy-3-(trifluoromethyl)benzamide], the IC50 amounted to 0.072 µM.

On to `O=C(Nc1cc(Nc2ncccc2-c2ncnc3[nH]cnc23)ccc1F)c1cccc(C(F)(F)F)n1` [Example 136, N-5-[(3-(9H-purin-6-yl)pyridin-2-yl)amino]-2-fluorophenyl-6-(trifluoromethyl) picolinamide], for which the IC50 was 2.3 µM.

For `Cc1cc(C(=O)Nc2cc(Nc3ncccc3-c3ncnc4[nH]cnc34)ccc2F)ccc1F` [Example 137, N-5-[(3-(9H-purin-6-yl)pyridin-2-yl)amino]-2-fluorophenyl-4-fluoro-3-methylbenzamide], the IC50 worked out at 1.06 µM.

Turning to `Cc1ccc(C(=O)Nc2cc(Nc3ncccc3-c3ncnc4[nH]cnc34)ccc2F)cc1C(F)(F)F` [Example 138, N-5-[(3-(9H-purin-6-yl)pyridin-2-yl)amino]-2-fluorophenyl-4-methyl-3-(trifluoromethyl)benzamide], the IC50 turned out to be 0.403 µM.

Consider `COc1cc(OC(F)(F)F)cc(C(=O)Nc2cc(Nc3ncccc3-c3ncnc4[nH]cnc34)ccc2F)c1` [Example 140, N-5-[(3-(9H-purin-6-yl)pyridin-2-yl)amino]-2-fluorophenyl-3-methoxy-5-(trifluoromethoxy)benzamide], for which the IC50 worked out at 0.294 µM.

For `O=C(Nc1cc(Nc2ncccc2-c2ncnc3[nH]cnc23)ccc1F)c1cccc(C2CC2)c1` [Example 141, N-5-[(3-(9H-purin-6-yl)pyridin-2-yl)amino]-2-fluorophenyl-3-cyclopropylbenzamide], the IC50 came out at 0.445 µM.

`O=C(Nc1cc(Nc2ncccc2-c2ncnc3[nH]cnc23)ccc1F)c1cc(Cl)cc(OC(F)(F)F)c1` [Example 142, N-5-[(3-(9H-purin-6-yl)pyridin-2-yl)amino]-2-fluorophenyl-3-chloro-5-(trifluoromethoxy)benzamide]: the IC50 turned out to be 0.128 µM.

For the molecule `O=C(Nc1cc(Nc2ncccc2-c2ncnc3[nH]cnc23)ccc1F)c1ccc(F)c(OC(F)(F)F)c1` [Example 143, N-5-[(3-(9H-purin-6-yl)pyridin-2-yl)amino]-2-fluorophenyl-4-fluoro-3-(trifluoromethoxy)benzamide], the IC50 is 0.559 µM.

On to `O=C(Nc1cc(Nc2ncccc2-c2ncnc3[nH]cnc23)ccc1F)c1cc(C(F)(F)F)ccn1` [Example 144, N-5-[(3-(9H-purin-6-yl)pyridin-2-yl)amino]-2-fluorophenyl-4-(trifluoromethyl) picolinamide], for which the IC50 came out at 0.444 µM.

In the case of `Cc1cccc(C(=O)Nc2cc(Nc3ncccc3-c3ncnc4[nH]cnc34)ccc2F)c1` [Example 145, N-5-[(3-(9H-purin-6-yl)pyridin-2-yl)amino]-2-fluorophenyl-3-methylbenzamide], the IC50 worked out at 1.03 µM.

Take `O=C(Nc1cc(Nc2ncccc2-c2ncnc3[nH]cnc23)ccc1F)c1cccc(Cl)c1` [Example 146, N-5-[(3-(9H-purin-6-yl)pyridin-2-yl)amino]-2-fluorophenyl-3-chlorobenzamide]: the IC50 was determined as 1.71 µM.

`O=C(Nc1cc(Nc2ncccc2-c2ncnc3[nH]cnc23)ccc1F)c1ccc(Cl)c(OC(F)(F)F)c1` [Example 147, N-5-[(3-(9H-purin-6-yl)pyridin-2-yl)amino]-2-fluorophenyl-4-chloro-3-(trifluoromethoxy)benzamide]: the IC50 was determined as 0.502 µM.

Turning to `O=C(Nc1cc(Nc2ncccc2-c2ncnc3[nH]cnc23)ccc1F)c1ccnc(C(F)(F)F)c1F` [Example 148, N-5-[(3-(9H-purin-6-yl)pyridin-2-yl)amino]-2-fluorophenyl-3-fluoro-2-(trifluoromethyl)isonicotinamide], the IC50 was 0.529 µM.

With `O=C(Nc1cc(Nc2ncccc2-c2ncnc3[nH]cnc23)ccc1F)c1cncc(C(F)(F)F)c1` [Example 149, N-5-[(3-(9H-purin-6-yl)pyridin-2-yl)amino]-2-fluorophenyl-5-(trifluoromethyl)nicotinamide], the half-maximal inhibitory concentration (IC50) worked out at 0.89 µM.

Turning to `COc1ccc(C(=O)Nc2cc(Nc3ncccc3-c3ncnc4[nH]cnc34)ccc2F)cc1OC(F)(F)F` [Example 150, N-5-[(3-(9H-purin-6-yl)pyridin-2-yl)amino]-2-fluorophenyl-4-methoxy-3-(trifluoromethoxy)benzamide], the IC50 came out at 0.25 µM.

With `O=C(Nc1cc(Nc2ncccc2-c2ncnc3[nH]cnc23)ccc1F)c1ccnc(C(F)(F)F)c1` [Example 151, N-5-[(3-(9H-purin-6-yl)pyridin-2-yl)amino]-2-fluorophenyl-2-(trifluoromethyl)isonicotinamide], the IC50 was 0.35 µM.

In the case of `COc1ccc(NC(=O)c2cccc(C(C)(C)C#N)c2)cc1Nc1ncccc1-c1ncnc2[nH]cnc12` [Example 152, N-3-[(3-(9H-purin-6-yl)pyridin-2-yl)amino]-4-methoxyphenyl-3-(2-cyanopropan-2-yl)benzamide], the IC50 worked out at 2.96 µM.

Take `Cc1ccc(NC(=O)c2cccc(C(C)(C)C#N)c2)cc1Nc1ncccc1-c1ncnc2[nH]cnc12` [Example 153, N-3-[(3-(9H-purin-6-yl)pyridin-2-yl)amino]-4-methylphenyl-3-(2-cyanopropan-2-yl)benzamide]: the IC50 is 0.447 µM.

With `Cc1cc(C(=O)Nc2cc(Nc3ncccc3-c3ncnc4[nH]cnc34)ccc2F)cc(C(C)(C)C#N)c1` [Example 155, N-5-[(3-(9H-purin-6-yl)pyridin-2-yl)amino]-2-fluorophenyl-3-(2-cyanopropan-2-yl)-5-methylbenzamide], the IC50 is 0.145 µM.

On to `COc1cc(C(=O)Nc2cc(Nc3ncccc3-c3ncnc4[nH]cnc34)ccc2F)c(Br)c(C(C)(C)C#N)c1` [Example 156, N-5-[(3-(9H-purin-6-yl)pyridin-2-yl)amino]-2-fluorophenyl-2-bromo-3-(2-cyanopropan-2-yl)-5-methoxybenzamide], for which the IC50 was 0.517 µM.

Regarding `N#Cc1cc(C(=O)Nc2cc(Nc3ncccc3-c3ncnc4[nH]cnc34)ccc2F)cc(C(F)(F)F)c1` [Example 157, N-5-[(3-(9H-purin-6-yl)pyridin-2-yl)amino]-2-fluorophenyl-3-cyano-5-(trifluoromethyl)benzamide], the IC50 stood at 0.464 µM.

For `O=C(Nc1cc(Nc2ncccc2-c2ncnc3[nH]cnc23)ccc1F)c1cc(Br)cc(C(F)(F)F)c1` [Example 158, N-5-[(3-(9H-purin-6-yl)pyridin-2-yl)amino]-2-fluorophenyl-3-bromo-5-(trifluoromethyl)benzamide], the IC50 is 0.283 µM.
